From US8946124B2, “Substituted 3-(biphenyl-3-yl)-8,8-difluoro-4-hydroxy-1-azaspiro[4.5]dec-3-en-2-ones for therapy and halogen-substituted spirocyclic ketoenols” (Bayer Intellectual Property GmbH, priority 2011, dated 2015)

Assays:
Myzus persicae = assay: Myzus test (MYZUPE spray treatment); assay type: in vivo; conditions: 500 g/ha, after 6 days
Tetranychus urticae = assay: Tetranychus test, OP-resistant (TETRUR spray treatment); assay type: in vivo; conditions: after 6 days
Experimental: (§1) Solvents: 78.0 parts by weight of acetone
After 6 days, the effect in % is determined.
Tetranychus Test, OP-Resistant (TETRUR Spray Treatment)

Phaedon cochleariae = assay: Phaedon test (PHAECO spray treatment); conditions: 500 g/ha, after 7 days
Spodoptera frugiperda = Spodoptera frugiperda test (SPODFR spray treatment); assay type: in vivo; conditions: 500 g/ha, after 7 days
Source text: as §1

human ACC1 = assay type: biochemical; conditions: pairwise, same substance dilution series
[1] = Octanol/water distribution coefficient (log P/D), isocratic HPLC method; assay type: physicochemical; conditions: pH 7.4; mean (range, n); read-out: logP/D pH 7.4
Source text: The distribution coefficient octanol/water P or D is a key parameter for estimating membrane penetration and permeability. It is defined as the ratio of the equilibrium concentrations of a substance in the two-phase system octanol/water.
[formula] P=partition D=distribution c(octanol)=concentration of the substance in the octanol phase c(water)=concentration of the substance in the aqueous phase
It is usually stated in form of the decadic logarithm (log P or log D).
log P describes the distribution behavior of a substance exclusively present in its neutral form. logD describes the distribution behavior of a substance at a certain pH; depending on the ionisation constant pKa of the substance, some of the substance may be present in ionic form, and some in neutral form.
The log P/D of the active compounds was determined using an isocratic HPLC method (HPLC=high performance liquid chromatography) (literature: OECD Guideline for Testing of Chemicals No. 117). The method is based on the correlation of the HPLC retention time of the test substance to that of reference substances with known distribution coefficients.
The test substance was employed as a 10 mM solution in DMSO (DMSO=dimethyl sulfoxide). 10 μl of this solution were made up to 100 μl with a methanol/water mixture in a ratio of 7+3.
The nine reference substances were dissolved individually in methanol. 100 μl each of the stock solutions were added to an HPLC vial and mixed with 300 μl of water.
A formamide solution was used to determine the hold-up time. To this end, 7 mg of formamide were dissolved in 10 ml of methanol. 100 μl of this stock solution were mixed with 500 μl of methanol and 200 μl of water.
All solutions were chromatographed using a flow rate of 1.00 ml/min.
Injection Protocol: formamide, references, test substance 1, test substance 2, . . . , formamide, references.
Evaluation of the retention times was carried out in a diode array detector (DAD) at 200-400 nm. Via the molecular mass, the identity of the test substance was checked using the downstream mass spectrometer.
The HPLC run was evaluated using the Waters software Masslynx 4.1.
The log P/D values were calculated using the software “POW Determination” (proprietary development).

human plasma protein = assay: Plasma protein binding by equilibrium dialysis; assay type: in vitro ADME
Experimental: (§2) The binding of test substances to plasma proteins is determined by equilibrium dialysis by means of the Ht-dialysis apparatus (96-well) made of Teflon and a semipermeable membrane (regenerated cellulose, MWCO 12-14K). This separates 150 μl each of a plasma side and a buffer side (50 mM phosphate buffer). The test substance is added in 2 concentrations (usually 3 and 0.3 μM) to the plasma side and binds to plasma proteins. The unbound fraction of the test substance passes through the membrane and is distributed on either side until equilibrium is established (after approx. 6-8 h at 37° C.). The substance concentration on the buffer side and the plasma side is determined by LC-MS analysis. For this, both sides are brought by dilution with buffer or plasma to the same matrix (10% plasma) and then precipitated with methanol. The free (unbound) fraction (fu) is calculated from the quotient of the buffer and plasma concentration. Stability tests and recovery tests are run concurrently as controls. In addition, the substance in buffer is dialysed against buffer, to check the nonspecific binding to apparatus and membrane and establishment of equilibrium. Because during incubation the osmotic pressure of the plasma proteins leads to dilution of the plasma (volume shift), this possible error is determined by weighing blank plasma samples and is included in the calculation of fu. Establishment of equilibrium and plasma stability should have a value not lower than 80% and the recovery should be at least 30%. A free fraction of <1% is regarded as high, between 1 and 10% as moderate and >10% as low plasma protein binding.

mouse plasma protein = assay: Plasma protein binding by equilibrium dialysis; assay type: in vitro ADME
Experimental: as §2

Meloidogyne incognita = Meloidogyne incognita test (MELGIN); assay type: in vivo; conditions: 20 ppm, after 14 days
Experimental: Solvent: 125 parts by weight of acetone
Containers are filled with sand, solution of active compound, Meloidogyne incognita egg/larvae suspension and lettuce seeds. The lettuce seeds germinate and the plants develop. On the roots, galls are formed. After 14 days, the nematicidal effect in % is determined by the formation of galls. 100% means that no galls have been found; 0% means that the number of galls on the treated plants corresponds to the untreated control.

Lucilia cuprina = Lucilia cuprina test (LUCICU); assay type: in vivo; conditions: 100 ppm, after 2 days
Experimental: (§3) Solvent: dimethyl sulfoxide
To prepare an appropriate active compound formulation, 10 mg of active compound are mixed with 0.5 ml of dimethyl sulfoxide and the concentrate is diluted with water to the desired concentration. Vessels containing horse meat treated with the active compound preparation of the desired concentration are populated with about 20 Lucilia cuprina larvae.
After 2 days, the kill in % is determined.

Boophilus microplus = Boophilus microplus test (BOOPMI injection); assay type: in vivo; conditions: 20 μg/animal, after 7 days
Experimental: as §3
To prepare an appropriate active compound formulation, 10 mg of active compound are mixed with 0.5 ml of solvent and the concentrate is diluted with solvent to the desired concentration. The solution of active compound is injected into the abdomen (Boophilus microplus), and the animals are transferred into dishes and kept in a climatized room. The activity is assessed by […] of fertile eggs.
100% means that none of the ticks has laid any fertile eggs.

plasma proteins of rat = assay: Plasma protein binding by equilibrium dialysis; assay type: in vitro ADME
Experimental: as §2

| SMILES | effect in % (aphids killed) (Myzus persicae) | effect in % (spider mites killed) (Tetranychus urticae; 100 g/ha) | effect in % (beetle larvae killed) (Phaedon cochleariae) | effect in % (caterpillars killed) (Spodoptera frugiperda) | chromatographic logD [1] | also measured |
| --- | --- | --- | --- | --- | --- | --- |
| Cc1cc(Br)cc(C)c1C1=C(O)C2(CCC(F)(F)CC2)NC1=O [Example I-1-a-5] | 100% | 100% | 100% |  |  |  |
| Cc1cc(Cl)cc(C)c1C1=C(O)C2(CC=C(F)CC2)NC1=O (centres unmarked) [Example I-1-a-13] | 100% | 90% | 100% |  |  |  |
| Cc1ccc(-c2ccc(F)cc2)c(C)c1C1=C(O)C2(CC=C(F)CC2)NC1=O (centres unmarked) [Example I-1-a-12] | 100% |  | 100% | 100% |  | effect in % (spider mites killed) (Tetranychus urticae; 500 g/ha): 100% |
| Cc1ccc(-c2ccc(Cl)cc2)cc1C1=C(O)[C@]2(CC[C@H](C(F)(F)F)CC2)NC1=O [V.2-a, (5s,8s)-3-(4′-Chloro-4-methylbiphenyl-3-yl)-4-hydroxy-8-(trifluoromethyl)-1-azaspiro[4.5]dec-3-en-2-one] |  |  |  |  | 2.23 | Ratio of IC50s ACC2/ACC1 (respective measurement) (human ACC1): 8.4 |
| Cc1cc(C)c(C2=C(O)C3(CCC(F)(F)CC3)OC2=O)c(C)c1 [Example I-2-a-4] | 100% |  | 100% |  |  |  |
| Cc1ccc(-c2ccc(Cl)c(F)c2)cc1C1=C(O)[C@]2(CC[C@H](C(F)(F)F)CC2)NC1=O [V.1-a, (5s,8s)-3-(4′-Chloro-3′-fluoro-4-methylbiphenyl-3-yl)-4-hydroxy-8-(trifluoromethyl)-1-azaspiro[4.5]dec-3-en-2-one] |  |  |  |  | 2.55 | Ratio of IC50s ACC2/ACC1 (respective measurement) (human ACC1): 8.6 |
| Cc1ccc(-c2ccc(Cl)cc2)cc1C1=C(O)C2(CCC(F)(F)CC2)NC1=O [Example 1-2, 3-(4′-Chloro-4-methylbiphenyl-3-yl)-8,8-difluoro-4-hydroxy-1-azaspiro[4.5]dec-3-en-2-one] | 100% | 100% | 100% | 100% | 1.73 | fu [%] (human) (human plasma protein): 0.42%; fu [%] (mouse) (mouse plasma protein): 3.49% |
| CCc1cc(C)cc(C)c1C1=C(O)C2(CCC(F)(F)CC2)NC1=O [Example I-1-a-11] |  | 100% |  |  |  |  |
| Cc1ccc(-c2ccc(Cl)cc2)cc1C1=C(O)C2(CCC(F)(F)CC2)OC1=O [Example I-2-a-3] | 90% |  | 100% | 100% |  |  |
| Cc1cc(Cl)cc(C)c1C1=C(O)C2(CCC(F)(F)CC2)NC1=O [Example I-1-a-7] | 100% | 100% | 100% |  |  |  |
| Cc1ccc(-c2ccc(F)cc2)c(C)c1C1=C(O)C2(CCC(F)(F)CC2)NC1=O [Example I-1-a-2] | 100% |  | 100% | 100% |  | effect in % (spider mites killed) (Tetranychus urticae; 500 g/ha): 100%; nematicidal effect in % (formation of galls) (Meloidogyne incognita): 100%; kill in % (Lucilia cuprina): 100%; effect in % (fertile eggs) (Boophilus microplus): 80% |
| Cc1ccc(-c2ccc(Cl)c(F)c2)cc1C1=C(O)C2(CCCCC2)NC1=O [V.1-b, 3-(4′-Chloro-3′-fluoro-4-methylbiphenyl-3-yl)-4-hydroxy-1-azaspiro[4.5]dec-3-en-2-one] |  |  |  |  | 2.8 |  |
| Cc1ccc(-c2ccc(Cl)cc2)cc1C1=C(O)C2(CCCCC2)NC1=O [V.2-b, 3-(4′-Chloro-4-methylbiphenyl-3-yl)-4-hydroxy-1-azaspiro[4.5]dec-3-en-2-one, reference compound] |  |  |  |  | 2.77 | fu [%] (human) (human plasma protein): 0.36%; fu [%] (mouse) (mouse plasma protein): 2.81%; fu [%] (rat) (plasma proteins of rat): 0.71% |
| O=C1NC2(CCC(F)(F)CC2)C(O)=C1c1cc(-c2ccc(Cl)cc2)ccc1Cl [Example 1-4, 3-(4,4′-Dichlorobiphenyl-3-yl)-8,8-difluoro-4-hydroxy-1-azaspiro[4.5]dec-3-en-2-one] |  |  |  |  |  | Ratio of IC50s ACC2/ACC1 (respective measurement) (human ACC1): 34.0 |
| Cc1ccc(-c2ccc(Cl)cc2)c(C)c1C1=C(O)C2(CCC(F)(F)CC2)NC1=O [Example 1-5, 3-(4′-Chloro-2,4-dimethylbiphenyl-3-yl)-8,8-difluoro-4-hydroxy-1-azaspiro[4.5]dec-3-en-2-one] | 100% | 90% |  |  |  | nematicidal effect in % (formation of galls) (Meloidogyne incognita): 100% |
| Cc1ccc(-c2ccc(F)cc2)c(C)c1C1=C(O)C2(CCC(F)(F)CC2)OC1=O [Example I-2-a-2] | 100% |  | 100% | 100% |  | effect in % (spider mites killed) (Tetranychus urticae; 500 g/ha): 100% |
